Structures are written as SMILES. Converted amounts (≈) assume the structure as drawn.

One may read the kinetic solubility as solubility judged after dilution from a stock solution rather than from solid.

The conditions of the data set: buffer; pH 7.4; 200.0 µM.
With `CCOc1ccc(NC(=S)NCc2nc3ccccc3[nH]2)cc1`, the kinetic solubility was 46.6 µg/mL (≈ 143 µM).
The figure for `Cc1ccccc1NC(=O)CSc1nc2scc(C)c2c(=O)[nH]1` is 1.4 µg/mL (≈ 4.05 µM); for `Cc1ccc(NC(=O)CSc2nc(C)c(Cc3ccccc3)c(=O)[nH]2)cc1` it is 1.4 µg/mL (≈ 3.69 µM).
Then `CNCc1cc(Cl)cc(OC)c1OC(C)C.Cl`, with over 42 µg/mL.
The figure for `CCOc1ccccc1NC(=O)NCc1ccc2c(c1)OCO2` is 0.8 µg/mL (≈ 2.55 µM).
`CC(=O)N1CCN(CC(=O)Nc2cc(S(=O)(=O)N3CCCCC3)ccc2C)CC1` displayed a solubility (kinetic) of over 63.4 µg/mL.
Then `CC(=O)Nc1nnc(SCC(=O)NC2CC2)s1`, with over 40.9 µg/mL; and `Cc1cc(N/C=C/C(=O)c2ccccc2)ccc1Br`, with under 0.7 µg/mL.
As for `Cc1cccc(C)c1NC(=S)N1CCCN(C)CC1`, the solubility (kinetic) is over 41.6 µg/mL.
Compound `O=C(c1ccc2ccccc2c1)N1CCN(c2ccccn2)CC1` displayed a kinetic solubility of 47.5 µg/mL (≈ 150 µM).
The figure for `Cc1cc(=O)cc(C)n1-c1ccc(Cl)cc1` is 34.8 µg/mL (≈ 149 µM); for `CC(Cc1ccccc1)NC(=S)CN1CCCC1=S` (configuration not stated) it is 38.9 µg/mL (≈ 133 µM).
The figure for `C#CCOc1c(Cl)cc(/C=C2/C(=O)ON=C2C)cc1OCC` is 39.4 µg/mL (≈ 123 µM); for `O=C(O)c1ccccc1Sc1ncnc2sccc12` it is over 43.3 µg/mL.
Then `N#Cc1ccccc1NC(=O)CSc1ccc([N+](=O)[O-])cn1`, with 0.7 µg/mL (≈ 2.23 µM); and `O=C(CNC(=O)c1ccccc1)NCCCSc1ccccc1`, with 25.2 µg/mL (≈ 76.7 µM); and `COCCNC(=O)C(NC(=O)C1CCCCC1)C12CC3CC(CC(C3)C1)C2` (configuration not stated), with 5.5 µg/mL (≈ 14.6 µM).
On to `Cc1ccc(CC(=O)NCC2CCCCC2)cc1`, for which the kinetic solubility came to 9.3 µg/mL (≈ 37.9 µM).
Then `COc1ccc(CC(=O)Nc2cc(S(=O)(=O)Nc3ccc(OC)cc3)ccc2OC)cc1`, with 14.6 µg/mL (≈ 32 µM); and `O=C(N/C(=C\c1ccco1)C(=O)N1CCOCC1)c1ccco1`, with over 47.4 µg/mL.
For the compound `CCC(CC)NC(=O)Cc1ccc(F)cc1`, the kinetic solubility is over 33.5 µg/mL.
In the case of `N#Cc1cc2c(nc1Cl)CCC2`, the solubility (kinetic) was determined as 20.2 µg/mL (≈ 113 µM).
The figure for `CN(Cc1ccc(F)cc1)Cc1nc(-c2ccccc2)no1` is 4.4 µg/mL (≈ 14.8 µM).
The figure for `CC(C)Oc1ccc(C(=O)Nc2ccc3c(c2)n(C)c(=O)n3C)cc1` is 13.5 µg/mL (≈ 39.8 µM); for `O=C(CN1C(=O)NC2(CCCc3ccccc32)C1=O)NCCc1ccc(F)cc1` (configuration not stated) it is over 59.3 µg/mL; for `O=C(NCc1ccccc1)C12CC3CC(CC(Cl)(C3)C1)C2` it is 5 µg/mL (≈ 16.5 µM).
Then `O=S(=O)(Cc1ccccc1)Nc1ccc(F)cc1`, with over 39.8 µg/mL; and `COc1ccc(CC(=O)N/N=C/c2cccs2)cc1OC`, with over 45.7 µg/mL.
Consider `O=C(O)CCCn1c(=O)c2cccn2c2ccc(F)cc21`, for which the kinetic solubility is over 43.2 µg/mL.
Then `CCc1cc2c(=O)oc(-c3ccccc3F)nc2s1`, with 0.7 µg/mL (≈ 2.54 µM); and `O=C(O)c1cc(-n2cccc2)ccc1N1CCOCC1`, with over 40.8 µg/mL.
The figure for `Cc1onc(-c2ccccc2Cl)c1C(=O)Nc1ccc(Cl)cn1` is 1 µg/mL (≈ 2.87 µM); for `CC(Nc1nc(N2CCOCC2)nc2ccccc12)c1ccccc1` (configuration not stated) it is 6.8 µg/mL (≈ 20.3 µM).
Compound `O=C(Cc1ccc(-c2ccccc2)cc1)NC1CCCC1` had a kinetic solubility of under 0.6 µg/mL.
Then `CC(C)CCNC(=O)c1ccc2c(c1)ncn2C1CCCC1`, with over 44.9 µg/mL; and `CC1(C)C/C(=N\O)C(C(O)c2cccc([N+](=O)[O-])c2)C(C)(C)N1` (configuration not stated), with 40.4 µg/mL (≈ 126 µM); and `Cc1onc(-c2c(Cl)cccc2Cl)c1C(=O)N(C)Cc1ccccc1`, with 40.9 µg/mL (≈ 109 µM).
Then `CN1CCCN(C(=O)c2cc3c(s2)CCCC3)CC1`, with 39.7 µg/mL (≈ 143 µM).
The figure for `CCc1ccc(/C=C2/SC(N3CCOCC3)=NC2=O)cc1` is 26.5 µg/mL (≈ 87.6 µM); for `CN1C(=O)C(=Cc2ccc(N3CCCCCC3)cc2)C(=O)N(C)C1=O` it is 7 µg/mL (≈ 20.5 µM).
As to `COc1cc(OC)c(C(=O)O/N=C(\N)c2ccc(C)cc2)cc1OC`, the kinetic solubility is over 51.7 µg/mL.
Compound `O=C(Nc1ccccc1O)c1ccc(NC(=O)C2CC2)cc1` had a solubility (kinetic) of 1.9 µg/mL (≈ 6.41 µM).
The figure for `CN(CC(O)COc1ccc2ccccc2c1)C1CCCCC1.Cl` (configuration not stated) is over 52.5 µg/mL; for `O=C(O)C1C2CCC(C2)C1C(=O)NCCc1cccc(Cl)c1` (configuration not stated) it is over 48.3 µg/mL; for `O=C(CCc1nnc(C2CCCCC2)o1)NCc1ccc(F)c(F)c1` it is over 52.4 µg/mL.
`O=C(CNC(=O)c1ccccc1F)OCC(=O)c1ccc(Cl)s1` showed a kinetic solubility of over 53.4 µg/mL.
Turning to `COc1cc2nc(NC(=O)c3ccco3)sc(=O)c2cc1OC`, the solubility (kinetic) was found to be 1 µg/mL (≈ 3.01 µM).
`CSc1ncc(Cl)c(C(=O)Nc2ccccc2C)n1` registered a solubility (kinetic) of 1.3 µg/mL (≈ 4.43 µM).
Then `Cn1c(SCC(=O)Nc2cccnc2Cl)nc2ccccc21`, with 37.9 µg/mL (≈ 114 µM); and `COCCN(C(=O)CSc1ccc2c(c1)OCCO2)c1c(N)n(CC(C)C)c(=O)[nH]c1=O`, with over 69.7 µg/mL; and `CCN(Cc1ccncc1)C(=S)Nc1ccc(Cl)cc1`, with over 45.9 µg/mL.
As for `Cc1ccc(C)c(C(C)NC(=O)c2ccc(Br)o2)c1` (configuration not stated), the solubility (kinetic) was determined as 42.1 µg/mL (≈ 131 µM).
For `CC(=O)c1sc2nc(CSc3nncn3C)[nH]c(=O)c2c1C`, the kinetic solubility was over 50.3 µg/mL.
The figure for `CC1(C)CC2CC(C)(CN2C(=O)c2cc(-c3ccccc3)on2)C1` (configuration not stated) is 3.3 µg/mL (≈ 10.2 µM).
`Cc1ncc([N+](=O)[O-])n1CC(=O)Nc1ccccc1F` yielded a kinetic solubility of over 41.7 µg/mL.
The figure for `O=C(COc1ccc(S(=O)(=O)NC2CCCCC2)cc1)NC1CC1` is over 52.9 µg/mL; for `O=C(Nc1ccccc1Br)c1cccc2ccccc12` it is under 0.7 µg/mL; for `CC1CN(C(=O)c2ccc(-c3ccccc3Cl)o2)CC(C)O1` (configuration not stated) it is 34.8 µg/mL (≈ 109 µM).
As to `CCN(CC(=O)NCc1cccs1)C(=O)c1cccc(S(=O)(=O)N2CC(C)OC(C)C2)c1` (configuration not stated), the kinetic solubility is over 71.9 µg/mL.
Then `Cc1ccc2cccc(OCC(=O)N3CC(C)CC(C)C3)c2n1` (configuration not stated), with 46.2 µg/mL (≈ 148 µM).
`C/C(=N\O)C(C)(C)Nc1cccc(Br)c1` showed a kinetic solubility of 37 µg/mL (≈ 136 µM).
Turning to `O=C(CN1C(=O)NC2(CCCC2)C1=O)OCCOc1ccccc1`, the kinetic solubility was over 49.9 µg/mL.
Turning to `Cc1cccc(NC(=O)C[n+]2ccc(N(C)C)cc2)c1.[Cl-]`, the solubility (kinetic) is 45.9 µg/mL.
The figure for `Cc1ccc(O)c(NC(=O)c2ccccc2-c2ccccc2C(=O)O)c1` is over 52.1 µg/mL; for `CCc1ccc(C(=O)Nc2nc(C)cs2)s1` it is 32.9 µg/mL (≈ 130 µM).
The compound `CC1CCN(CC(=O)Nc2cccc(Cl)c2)CC1` yielded a solubility (kinetic) of 39.7 µg/mL (≈ 149 µM).
`CC(=O)c1ccc(NC(=O)C(C)Sc2ccccn2)cc1` (configuration not stated) came in with a solubility (kinetic) of over 45.1 µg/mL.
`CCOC(=O)c1c(N)c2cc([N+](=O)[O-])ccc2n1C`: the solubility (kinetic) is under 0.2 µg/mL.
The compound `Cc1c(C)n(C)c2ccc(C(=O)NCCc3ccco3)cc12` showed a solubility (kinetic) of over 44.5 µg/mL.
`CCOC(=O)c1sc(NC(=O)C2CC(=O)N(c3ccc(OCC)cc3)C2)nc1C` (configuration not stated): the solubility (kinetic) turned out to be 9.9 µg/mL (≈ 23.7 µM).
The figure for `COc1ccc(C(=S)N2CCCC2)cc1Br` is over 45 µg/mL.
For `CN1C(=O)/C(=C/c2ccc(OCc3ccc(F)cc3)cc2)N(C)C1=S`, the solubility (kinetic) was under 0.4 µg/mL.
For the compound `CCC1=NC(c2ccc(Br)cc2)N(O)C1(C)C` (configuration not stated), the solubility (kinetic) came out at 41 µg/mL (≈ 138 µM).
For the compound `CC(C)N1CCN(C(=O)c2ccc([N+](=O)[O-])cc2)CC1`, the solubility (kinetic) was 27.3 µg/mL (≈ 98.4 µM).
The figure for `Cc1[nH]c2ccc(C(=O)NCCCN3CCCC3)cc2c1C` is over 44.9 µg/mL; for `Cc1ccc(CC2CC(=O)N(c3nc(C)cc(C)n3)C2=O)cc1` (configuration not stated) it is over 46.4 µg/mL.
Then `CC(Cc1ccccc1)NC(=O)CC(c1ccccc1)c1ccccc1O` (configuration not stated), with 10.8 µg/mL (≈ 30 µM).
The figure for `O=C(Nc1ccccc1O)C(c1ccccc1)c1ccccc1` is 9 µg/mL (≈ 29.7 µM).
In the case of `COC(=O)c1c(C)oc(C)c1S(=O)(=O)NCc1ccco1`, the solubility (kinetic) was over 47 µg/mL.
In the case of `OC(CNCc1ccc(Cl)cc1)C(F)(F)F` (configuration not stated), the kinetic solubility was over 38 µg/mL.
The figure for `COc1ccccc1N1CC=C(c2cccc([N+](=O)[O-])c2)NC1=O` is 39.8 µg/mL (≈ 122 µM); for `O=[N+]([O-])c1cccnc1N1CCN(c2ccc(F)cc2)CC1` it is 12.1 µg/mL (≈ 40 µM); for `CCC1(C)Cc2c(sc3[nH]c(=S)[nH]c(=S)c23)CO1` (configuration not stated) it is 27.7 µg/mL (≈ 92.8 µM).
Turning to `COc1ccc(C)cc1NC(=O)C1CC(=O)N(CCc2ccccc2)C1` (configuration not stated), the solubility (kinetic) is over 52.9 µg/mL.
Then `COc1ccc2[nH]c(=O)c(C(=O)O)cc2c1`, with over 32.9 µg/mL; and `O=C(Nc1cccc(NC(=O)c2ccccc2F)c1)c1ccccc1`, with 0.9 µg/mL (≈ 2.69 µM).
In the case of `CN(C)c1ccc(CN2CCC(C(N)=O)CC2)cc1.O=C(O)C(=O)O`, the solubility (kinetic) was over 52.7 µg/mL.
Compound `O=C(Nc1ccc(N2CCCCC2)cc1)c1ccc([N+](=O)[O-])o1` gave a kinetic solubility of 6.9 µg/mL (≈ 21.9 µM).
The figure for `CC(=O)n1c(-c2ccccc2)c(-c2ccccc2)n(C)c1=O` is over 43.9 µg/mL.
`CC(=O)c1ccc(NC(=O)c2noc(C)c2[N+](=O)[O-])cc1`: the kinetic solubility amounted to 18.6 µg/mL (≈ 64.3 µM).
`Cc1ccccc1Oc1nc2c(c(=O)n(C)c(=O)n2C)n1C` yielded a kinetic solubility of over 45 µg/mL.
Then `C=C(C)CN1CCN(c2ccc(N3C(=O)CCCC3=O)cc2[N+](=O)[O-])CC1`, with 54 µg/mL (≈ 145 µM); and `O=S(=O)(c1ccc2c(c1)CCN2)N1CCOCC1`, with over 40.2 µg/mL.
`COc1ccc(NC(=O)CC(C)n2ccnc2)cc1` (configuration not stated) showed a kinetic solubility of over 38.9 µg/mL.
Then `CCOC(=O)c1ccc(-c2ccc3c(c2)CCC3)nc1C`, with under 0.6 µg/mL.
On to `CCOc1ccccc1NC(=O)c1ccc2c(c1)C(=O)N(CC)C2=O`, for which the solubility (kinetic) is under 0.4 µg/mL.
The figure for `Cc1nn(CCCC(=O)Nc2cccnc2Cl)c(C)c1[N+](=O)[O-]` is over 50.7 µg/mL.
`COC(=O)c1ccc(S(=O)(=O)N2CCCN(Cc3ccc(F)cc3)CC2)n1C` had a solubility (kinetic) of over 61.4 µg/mL.
As for `Cc1cc(OCCCCCn2ccnc2)cc(C)c1Cl.Cl`, the kinetic solubility stood at 23.1 µg/mL.
The figure for `C/C(=N\O)C(C)(C)Nc1ccc(Cl)cc1` is 32.1 µg/mL (≈ 142 µM); for `CN(CC(=O)Nc1cccc(C#N)c1)Cc1ccc(Cl)cc1` it is 27.9 µg/mL (≈ 88.9 µM).
For the compound `Cc1noc(C)c1C(=O)OCC(=O)NCCc1ccc(S(N)(=O)=O)cc1`, the kinetic solubility is over 57.2 µg/mL.

These data come from PubChem BioAssay AID1996.
